Measured values reported in publication PMC9603770, “Broad-Spectrum Inhibitors against Class A, B, and C Type β-Lactamases to Block the Hydrolysis against Antibiotics: Kinetics and Structural Characterization” (Microbiology Spectrum, 2022).

Assays:
NDM-1 [1] = target: T1, NDM-1 (Klebsiella pneumoniae, UniProt C7C422); assay: IC50, nitrocefin hydrolysis; assay type: biochemical; details: 100 μΜ nitrocefin
T1 construct: made in house; host or cells: E. coli (DH5 and BL21(DE3) named)
Procedure: (§1) The IC50 values of all the proteins were calculated to determine the efficacy of each inhibitor. The IC50 values were calculated for the proteins NDM-1, Amp-C, KPC-2, CTX-M-15, SHV-1, and TEM-1 with each of its inhibitors (D63, D2148, and D2573) to compare their efficacies at a fixed concentration 100 μΜ of nitrocefin (Table 7).
(§2) Overexpression of proteins was done by adding 0.5 mM IPTG (isopropyl-β-D-thiogalactopyranoside), and purification of the NDM-1, SHV-1, TEM-1, CTX-M-15, KPC-2, and Amp-C recombinant protein was performed with an Ni-NTA affinity column. […] The final concentration of the protein was estimated with a NanoDrop instrument.
(§3) The direct competition between the β-lactamase substrate, nitrocefin, and their inhibitors were used to determine the IC50 and Ki values. Using a Shimadzu UV-VIS spectrophotometer UV-1800, variable quantities of inhibitor D63, D2148, and D2573 (0 to 3 μM), fixed concentrations of purified proteins (1 nM), and nitrocefin substrate (100 μM) were used in a reaction at 486 nm. […] The IC50 value is the inhibitor concentration that inhibits enzyme hydrolytic activity by 50% (50% inhibitory concentration).

KPC-2 = target: T2, KPC-2 (Klebsiella pneumoniae, UniProt Q9F663); assay: IC50, nitrocefin hydrolysis; assay type: biochemical; details: 100 μΜ nitrocefin
T2 construct: made in house; host or cells: E. coli (DH5 and BL21(DE3) named; pET-28a)
T2 sequence (Q9F663 25-293, looked up, species assumed): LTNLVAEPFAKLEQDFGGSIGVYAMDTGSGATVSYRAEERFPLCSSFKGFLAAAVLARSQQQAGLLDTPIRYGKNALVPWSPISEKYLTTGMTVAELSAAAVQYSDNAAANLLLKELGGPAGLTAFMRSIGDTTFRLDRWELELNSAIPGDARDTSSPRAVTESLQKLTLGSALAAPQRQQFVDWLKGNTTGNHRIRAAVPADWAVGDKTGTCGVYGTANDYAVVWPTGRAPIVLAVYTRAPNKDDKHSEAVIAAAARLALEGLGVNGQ
Procedure: as §1, §2, §3

CTX-M-15 = target: T3, CTX-M-15 (Escherichia coli, UniProt Q9EXV5); assay: IC50, nitrocefin hydrolysis; assay type: biochemical; details: 100 μΜ nitrocefin
T3 construct: made in house; host or cells: E. coli (DH5 and BL21(DE3) named)
T3 sequence (Q9EXV5 29-291, species assumed): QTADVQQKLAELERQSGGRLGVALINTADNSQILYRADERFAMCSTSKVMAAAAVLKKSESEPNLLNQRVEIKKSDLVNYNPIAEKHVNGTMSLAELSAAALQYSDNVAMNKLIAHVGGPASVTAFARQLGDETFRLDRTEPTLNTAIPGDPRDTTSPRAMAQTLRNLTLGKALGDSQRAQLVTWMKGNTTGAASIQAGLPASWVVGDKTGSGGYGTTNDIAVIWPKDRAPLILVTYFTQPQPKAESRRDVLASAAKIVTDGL
Procedure: as §1, §2, §3

SHV-1 [2] = target: T4, SHV-1 (Klebsiella pneumoniae, UniProt P0AD64); assay: IC50, nitrocefin hydrolysis; assay type: biochemical
T4 construct: made in house; host or cells: E. coli (DH5 and BL21(DE3) named; pET-28a)
T4 sequence (P0AD64 22-286): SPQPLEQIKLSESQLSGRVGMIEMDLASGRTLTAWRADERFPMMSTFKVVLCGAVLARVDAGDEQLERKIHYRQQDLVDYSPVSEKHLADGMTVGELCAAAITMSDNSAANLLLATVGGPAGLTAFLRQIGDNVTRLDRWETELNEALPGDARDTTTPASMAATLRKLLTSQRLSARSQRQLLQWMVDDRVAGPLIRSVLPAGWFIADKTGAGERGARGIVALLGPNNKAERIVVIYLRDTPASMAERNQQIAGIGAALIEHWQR
Procedure: as §1, §2, §3

TEM-1 = target: T5, TEM-1 (Escherichia coli, UniProt P62593); assay: IC50, nitrocefin hydrolysis; assay type: biochemical; details: 100 μΜ nitrocefin
T5 construct: made in house; host or cells: E. coli (DH5 and BL21(DE3) named; pET-28a)
T5 sequence (P62593 24-286 limits assumed): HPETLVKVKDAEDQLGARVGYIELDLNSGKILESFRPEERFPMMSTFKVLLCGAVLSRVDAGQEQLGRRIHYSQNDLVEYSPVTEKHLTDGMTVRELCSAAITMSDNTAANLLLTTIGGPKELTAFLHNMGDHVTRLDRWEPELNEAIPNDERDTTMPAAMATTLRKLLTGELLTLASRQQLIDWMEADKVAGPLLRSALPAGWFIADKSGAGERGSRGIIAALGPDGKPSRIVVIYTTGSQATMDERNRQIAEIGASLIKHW
Procedure: as §1, §2, §3

Amp-C = target: T6, Amp-C (Escherichia coli, UniProt P00811); assay: IC50, nitrocefin hydrolysis; assay type: biochemical
T6 construct: made in house; host or cells: E. coli (DH5 and BL21(DE3) named; pET-28a)
T6 sequence (P00811 20-377): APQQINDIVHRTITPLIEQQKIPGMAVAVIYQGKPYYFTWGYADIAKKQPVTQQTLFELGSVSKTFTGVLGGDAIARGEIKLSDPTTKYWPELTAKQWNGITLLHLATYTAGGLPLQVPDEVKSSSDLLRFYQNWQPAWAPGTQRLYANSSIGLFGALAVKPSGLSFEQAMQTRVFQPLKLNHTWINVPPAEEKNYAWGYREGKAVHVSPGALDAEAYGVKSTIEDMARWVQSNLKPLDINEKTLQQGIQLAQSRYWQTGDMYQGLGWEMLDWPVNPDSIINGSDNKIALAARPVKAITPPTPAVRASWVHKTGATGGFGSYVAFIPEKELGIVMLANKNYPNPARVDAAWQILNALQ
Procedure: as §1, §2, §3

NDM-1 [3] = target: T1, NDM-1; assay: Steady-state kinetics of antibiotic hydrolysis with inhibitor; assay type: biochemical; details: inhibitor concentration as per IC50
Procedure: (§4) The enzyme kinetics parameters (Km, and kcat) for all six proteins/enzymes in combination with different antibiotics (cefotaxime, imipenem, and meropenem), were calculated. The concentration of inhibitors, D63, D2148, and D2573, was as per the IC50 value (Fig. 5); the kinetic parameters are listed in Table 8.
(§5) The steady-state kinetics of all six proteins were determined using the antibiotics:imipenem (Δε295 = −11,500 M^−1 cm^−1), meropenem (Δε297 = −10,940 M^−1 cm^−1), and cefotaxime (Δε264 = −27,250 M^−1 cm^−1). In this study, the D63, D2148, and D2573 inhibitors were tested. Hydrolysis of β-lactam antibiotics was detected by monitoring the variation in absorbance due to cleavage of the β-lactam ring in 50 mM, pH 7.0, phosphate buffer ([40], [41]). For hydrolysis of substrate (cefotaxime, imipenem, and meropenem) kinetics parameters, Km and kcat were calculated by using Michaelis Menten equations (equations 2 and 3). (2) V =Vmax [S]/Km + [S] (3) kcat = Vmax/E where E and S are the enzyme and substrate concentration, Km is the Michaelis-Mentent constant, kcat is the turnover number, and V and Vmax are the initial and maximum velocity of the hydrolysis, respectively.

SHV-1 [4] = target: T4, SHV-1; assay: as above; assay type: biochemical; details: inhibitor concentration as per IC50
Procedure: as §4, §5

MTT cytotoxicity assay = assay type: cell-based; details: mouse, NIH 3T3 cells, 50 μg/mL, read-out: cellular viability
Procedure: (§6) Cytotoxicity of lead molecules D2573, D2148, and D63 on NIH 3T3 cells was evaluated by MTT assay. The relative cellular viability of NIH 3T3 cells in the presence of each sample D2573, D2148, and D63 at different concentrations (12.5 μg/mL, 25 μg/mL, and 50 μg/mL) is shown in Fig. 6.
(§7) A cytotoxicity experiment was performed on NIH 3T3 cells. The NIH 3T3 cells were grown at 37°C in Dulbecco’s modified Eagle’s medium (DMEM) supplemented with 10% fetal bovine serum (FBS) and 1% antibiotic, penicillin-streptomycin (pen-strep), in a humidified incubator with 5% CO2. Sterile conditions were maintained at all times. Cells (~10^5 cells/well) were seeded in 96-well plates and allowed to adhere overnight. The cells were subsequently given different quantities of the lead compounds D2573, D2148, and D63 (12.5 μg/mL, 25 μg/mL, and 50 μg/mL, respectively). A conventional 3-(4,5-dimethylthiazol-2-yl)-2,5-diphenyl tetrazolium bromide (MTT) test was used to measure cell survival after 24 h. The supernatants were removed, and each well was filled with 90 μL of new medium and 10 μL of MTT (1 mg/mL) solution, which was then incubated for 4 h at 37°C. The formazan crystals generated during the reduction of MTT were dissolved in 150 μL of dimethyl sulfoxide (DMSO), and the absorbance was measured by measuring the optical density using a spectrophotometer at a wavelength of 570 nm.

NIH 3T3 cells = assay: MTT cytotoxicity assay; assay type: cell-based; details: 24 h; for cellular viability: 50 μg/mL; for cytotoxicity (result in words): up to 50 μg/mL
Procedure: as §6, §7

T1 sequence (C7C422 29-270, looked up, species assumed): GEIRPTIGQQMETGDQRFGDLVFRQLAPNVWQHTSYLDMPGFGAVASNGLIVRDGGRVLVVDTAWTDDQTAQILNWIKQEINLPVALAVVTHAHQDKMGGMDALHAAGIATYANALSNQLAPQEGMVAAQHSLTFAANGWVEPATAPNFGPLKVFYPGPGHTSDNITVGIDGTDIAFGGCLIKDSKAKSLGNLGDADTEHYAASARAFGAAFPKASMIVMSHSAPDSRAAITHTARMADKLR

SMILES	IC50 (NDM-1 [1])	IC50 (KPC-2)	IC50 (CTX-M-15)	IC50 (SHV-1 [2])	IC50 (TEM-1)	IC50 (Amp-C)	Km or Ki (NDM-1 [3]; cefotaxime)	kcat (NDM-1 [3]; cefotaxime)	Km or Ki (NDM-1 [3]; imipenem)	kcat (NDM-1 [3]; imipenem)	Km or Ki (NDM-1 [3]; meropenem)	kcat (NDM-1 [3]; meropenem)	Km or Ki (SHV-1 [4]; cefotaxime)	kcat (SHV-1 [4]; cefotaxime)	Km or Ki (SHV-1 [4]; imipenem)	kcat (SHV-1 [4]; imipenem)	Km or Ki (SHV-1 [4]; meropenem)	kcat (SHV-1 [4]; meropenem)	viability at 24 h, 50 μg/mL (MTT cytotoxicity assay)	cellular viability (NIH 3T3 cells)	also measured
O=C(CN1C(=O)c2ccccc2S1(=O)=O)c1ccc(O)c(O)c1 [D63, 2-[2-(3,4-dihydroxyphenyl)-2-oxoethyl]-1H-1,2-benzisothiazole-1,1,3(2H)-trione]	0.733 nM	0.695 nM	0.779 nM	0.649 nM	0.726 nM	0.609 nM	410.8 μΜ	1.833 S^−1	258.7 μΜ	18.29 S^−1	1,052 μΜ	9.282 S^−1	1,375 μΜ	1.621 S^−1	851 μΜ	1.525 S^−1	2,881 μΜ	1.928 S^−1	~78%	> 75%	cytotoxicity (result in words) (NIH 3T3 cells): nontoxic
O=C(c1ccccc1)C1CCN(C(=O)CN2C(=O)c3ccccc3C2=O)CC1 [D2148, 2-[2-(4-benzoylpiperidino) -2-oxoethyl]-1H-isoindole-1,3(2H)-dione]	0.632 nM	0.744 nM	0.638 nM	0.587 nM	0.449 nM	0.714 nM	1,939 μΜ	15.88 S^−1	995.4 μΜ	20.6 S^−1	986.4 μΜ	9.201 S^−1	626.2 μΜ	6.751 S^−1	618.4 μΜ	5.535 S^−1	1,376 μΜ	6.436 S^−1	~78%	> 75%	cytotoxicity (result in words) (NIH 3T3 cells): nontoxic
O=C(O)c1ccccc1C(=O)N1CCN(c2nc(-c3ccccc3)ns2)CC1 [D2573, 2-{[4-(3-phenyl-1,2,4-thiadiazol-5-yl)piperazino]carbonyl}benzoic acid]	0.624 nM	0.667 nM	0.731 nM	0.655 nM	0.634 nM	0.655 nM	8,756 μΜ	4.921 S^−1	301.3 μΜ	3.875 S^−1	756.8 μΜ	14.59 S^−1	608 μΜ	0.8431 S^−1	1,138 μΜ	0.958 S^−1	979 μΜ	1.232 S^−1	82%	> 75%	cytotoxicity (result in words) (NIH 3T3 cells): nontoxic
